Data published in US20240115681A1 (priority 2022, published 2024).
In the oligonucleotide strings, read from the 5' end, every base follows the letter of its sugar. An asterisk marks phosphorothioate; unmarked linkages are phosphodiester. Other units and linkages are bracketed, terminal groups are in braces. A string of capitals states the bases alone. d = 2'-deoxy (DNA)

Tests used:
[1] = system: NHRI-HN1 syngeneic orthotopic cancer animal model; parameters: species or system mice; conditions: mouse, in vivo
recombinant S protein = system: recombinant S protein; parameters: species or system SARS-CoV-2; conditions: in vivo
splenocytes = test: Antigen-dependent T helper responses: cytokine ELISA of RBD-stimulated splenocytes from immunized mice; type: in vivo, mouse; conditions: splenocytes of intramuscularly immunized mice stimulated with RBD for 96 h (FIG. 5A-5C)
Mouse BMDCs [2] = test: Surface marker expression on BMDCs by flow cytometry; type: cell-based; conditions: CpG-2722 5 μg/ml, c-di-AM(PS)2 1 μg/ml, 24 h, CD11c+ cells (FIG. 6)
Mouse BMDCs [3] = test: Cytokine expression in BMDCs by RT-qPCR; type: cell-based; conditions: 4 h (FIG. 7); for expression of cytokine genes (TNF-α, IL-1β, IL-6, IL-12A, IL-12B, IL-23A, IFN-β, IFN-γ): CpG-2722 5 μg/ml, c-di-AM(PS)2 1 μg/ml
Mouse splenocytes = test: Cytokine expression in splenocytes by RT-qPCR; type: cell-based; conditions: 4 h (FIG. 8)
[4] = system: mouse embryonic fibroblasts (MEFs); test: Cytokine expression in MEFs by RT-qPCR; type: cell-based; conditions: CpG-2722 5 μg/ml, c-di-AM(PS)2 1 μg/ml, 4 h (FIG. 10)
Mouse PBMCs = test: Cytokine expression in PBMCs by RT-qPCR; type: cell-based; conditions: CpG-2722 5 μg/ml, c-di-AM(PS)2 1 μg/ml, 4 h (FIG. 9)
[5] = system: influenza VLP (viral like particle); test: Antibody titers after intranasal influenza VLP/adjuvant vaccines in BALB/c mice; conditions: intranasal days 0, 15, 29, after the 3rd vaccination (day 42) (FIG. 15B)

| Compound | tumor growth suppression [1] | anti-S protein IgG titer (recombinant S protein) | serum anti-S IgA production (recombinant S protein) | antigen-dependent Th responses (IFN-γ for Th1, IL-17A for Th17, IL-4, IL-5, IL-13 for Th2) (splenocytes) | surface expression of CCR7 (Mouse BMDCs [2]) | surface expression of CD80 (Mouse BMDCs [2]) | surface expression of CD86 (Mouse BMDCs [2]) | expression of IFN-α (Mouse BMDCs [3]) | expression of IL-2 (Mouse BMDCs [3]) | expression of cytokine genes (TNF-α, IL-1β, IL-6, IL-12A, IL-12B, IL-23A, IFN-β, IFN-γ) (Mouse BMDCs [3]) | expression of IFN-β, IL-4, IL-5, and IL-13 (Mouse splenocytes) | expression of IL-12A and IL-12B (Mouse splenocytes) | cytokine gene expression (TNF-α, IL-1β, IL-6, IL-12B, IL-23A, IFN-β) [4] | surface expression of CD40 (Mouse BMDCs [2]) | expression of IL-1β (Mouse BMDCs [3]) | expression of TNF-α, IL-1β, IL-6, IL-12A, IL-12B, IL-23A, IFN-β, IFN-γ (Mouse splenocytes; CpG-2722 5 μg/ml, c-di-AM(PS)2 1 μg/ml) | mRNA expression of TNF-α, IL-1β, IL-6, IL-12A, IL-12B, IL-23A, IFN-β, IFN-γ (Mouse PBMCs) | anti-VLP IgG titer [5] |
| --- | --- | --- | --- | --- | --- | --- | --- | --- | --- | --- | --- | --- | --- | --- | --- | --- | --- | --- |
| Nc1ncnc2c1ncn2[C@@H]1O[C@@H]2COP(=O)(O)O[C@@H]3[C@H](O)[C@@H](COP(=O)(O)O[C@H]2[C@H]1O)O[C@H]3n1cnc2c(N)ncnc21 [2′3′-c-di-AMP] | some level of tumor growth suppression |  |  |  |  |  |  |  |  |  |  |  |  |  |  |  |  |  |
| Nc1ncnc2c1ncn2[C@@H]1O[C@@H]2COP(O)(=S)O[C@@H]3C(O)[C@@H](COP(O)(=S)O[C@H]2[C@H]1O)O[C@H]3n1cnc2c(N)ncnc21 (some centres unmarked) [2′3′-c-di-AM(PS)2] |  | became apparent | did not elicit the production of serum anti-S IgA | induced an antigen-dependent Th2 response | none of these two agonists activated expression of the CCR7 | induced the expression of CD80 and CD86 | induced the expression of CD80 and CD86 | induced the expression of IFN-α | not induced by either of these two agonists alone | induced the expressions of TNF-α, IL-1β, IL-6, IL-12A, IL-12B, IL-23A, IFN-β, and IFN-γ genes | induced the expression of IFN-β, IL-4, IL-5, and IL-13 more potently | not induced | induced the gene expression of TNF-α, IL-1β, IL-6, IL-12B, IL-23A, and IFN-β |  |  |  |  |  |
| CpG-2722 (DNA dG*dT*dT*dG*dT*dC*dG*dT*dT*dT*dT*dT*dT*dG*dT*dC*dG*dT*dT) | some level of tumor growth suppression | became apparent | did not elicit the production of serum anti-S IgA | preferentially induced antigen-dependent Th1 and Th17 responses | none of these two agonists activated expression of the CCR7 |  |  |  | not induced by either of these two agonists alone | induced the expressions of TNF-α, IL-1β, IL-6, IL-12A, IL-12B, IL-23A, IFN-β, and IFN-γ genes |  |  | not observed | induced expression of CD40 | strongly induced | more potent than c-di-AM(PS)2 | higher induction by CpG-2722 treatment alone than that induced by the c-di-AM(PS)2 treatment alone | does not further increase the IgG titer |
